Laboratory results published in patent US7183324B2, “2,3,4-substituted cyclopentanones as therapeutic agents” (Allergan, Inc., priority 2004, dated 2007).

How the values were obtained:
hEP3A/Gqi5 = molecular target: T1, hEP3A/Gqi5 (Homo sapiens, UniProt P43115); assay: FLIPR calcium signal, hEP3A/Gqi5; type: cell-based; details: HEK-293 (EBNA) cells, read-out: FUNCTIONAL EC50 HEP3A
T1 construct: expressed in transfected cells; host or cells: HEK-293 (EBNA)
T1 sequence (P43115 1-390): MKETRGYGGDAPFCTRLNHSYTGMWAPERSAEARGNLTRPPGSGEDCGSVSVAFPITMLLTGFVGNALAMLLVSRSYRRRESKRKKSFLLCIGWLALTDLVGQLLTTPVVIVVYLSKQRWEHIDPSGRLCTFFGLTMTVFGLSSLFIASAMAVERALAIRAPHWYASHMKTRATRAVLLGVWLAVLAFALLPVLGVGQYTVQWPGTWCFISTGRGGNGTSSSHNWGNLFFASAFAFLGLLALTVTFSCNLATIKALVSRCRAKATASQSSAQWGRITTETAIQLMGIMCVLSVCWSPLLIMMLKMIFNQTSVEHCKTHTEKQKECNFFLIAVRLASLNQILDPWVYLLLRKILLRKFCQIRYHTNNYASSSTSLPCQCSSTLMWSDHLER
Description: (§1) HEK-293 (EBNA) cells, stably expressing one type or subtype of recombinant human prostaglandin receptors (prostaglandin receptors expressed: hDP/Gqs5; hEP1; hEP2/Gqs5; hEP3A/Gqi5; hEP4/Gqs5; hFP; hIP; hTP), were cultured in 100 mm culture dishes in high-glucose DMEM medium containing 10% fetal bovine serum, 2 mM 1-glutamine, 250 μg/ml geneticin (G418) and 200 μg/ml hygromycin B as selection markers, and 100 units/ml penicillin G, 100 μg/ml streptomycin and 0.25 μg/ml amphotericin B. • (b) Calcium Signal Studies on the FLIPR™
(§2) Cells were seeded at a density of 5×10^4 cells per well in Biocoat® Poly-D-lysine-coated black-wall, clear-bottom 96-well plates (Becton-Dickinson) and allowed to attach overnight in an incubator at 37° C. Cells were then washed two times with HBSS-HEPES buffer (Hanks Balanced Salt Solution without bicarbonate and phenol red, 20 mM HEPES, pH 7.4) using a Denley Cellwash plate washer (Labsystems). After 45 minutes of dye-loading in the dark, using the calcium-sensitive dye Fluo-4 AM at a final concentration of 2 μM, plates were washed four times with HBSS-HEPES buffer to remove excess dye leaving 100 μl in each well. Plates were re-equilibrated to 37° C. for a few minutes.
(§3) Cells were excited with an Argon laser at 488 nm, and emission was measured through a 510–570 nm bandwidth emission filter (FLIPR™, Molecular Devices, Sunnyvale, Calif.). Drug solution was added in a 50 μl volume to each well to give the desired final concentration. The peak increase in fluorescence intensity was recorded for each well. On each plate, four wells each served as negative (HBSS-HEPES buffer) and positive controls (standard agonists: BW245C (hDP); PGE2 (hEP1; hEP2/Gqs5; hEP3A/Gqi5; hEP4/Gqs5); PGF2α (hFP); carbacyclin (hIP); U46619 (hTP), depending on receptor). The peak fluorescence change in each drug-containing well was then expressed relative to the controls.
(§4) Compounds were tested in a high-throughput (HTS) or concentration-response (CoRe) format. In the HTS format, forty-four compounds per plate were examined in duplicates at a concentration of 10^−5 M. To generate concentration-response curves, four compounds per plate were tested in duplicates in a concentration range between 10^−5 and 10^−11 M. The duplicate values were averaged. In either, HTS or CoRe format each compound was tested on at least 3 separate plates using cells from different passages to give an n≧3.

HEP4 = molecular target: T2, HEP4 (Homo sapiens, UniProt P35408); assay: Radioligand binding, EP4 receptor; details: [3H]PGE2 5 nM, HEK-293 membranes
T2 construct: expressed in transfected cells; host or cells: HEK-293
T2 sequence (P35408 whole entry): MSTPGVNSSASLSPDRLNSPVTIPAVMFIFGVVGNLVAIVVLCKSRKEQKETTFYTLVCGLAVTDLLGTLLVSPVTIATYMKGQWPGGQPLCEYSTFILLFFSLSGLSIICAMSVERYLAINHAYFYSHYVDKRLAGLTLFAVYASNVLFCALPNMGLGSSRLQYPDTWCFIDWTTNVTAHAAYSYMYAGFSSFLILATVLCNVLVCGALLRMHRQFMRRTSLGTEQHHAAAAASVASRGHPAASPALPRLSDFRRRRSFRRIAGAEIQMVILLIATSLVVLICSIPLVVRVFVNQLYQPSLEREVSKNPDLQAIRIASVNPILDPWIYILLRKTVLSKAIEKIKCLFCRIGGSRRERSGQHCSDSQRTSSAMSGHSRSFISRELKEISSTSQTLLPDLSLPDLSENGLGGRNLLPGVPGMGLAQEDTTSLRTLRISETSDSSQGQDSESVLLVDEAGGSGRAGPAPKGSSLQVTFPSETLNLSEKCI
Description: (§5) HEK-293 cells stably expressing the human or feline FP receptor, or EP1, EP2, or EP4 receptors were washed with TME buffer, scraped from the bottom of the flasks, and homogenized for 30 sec using a Brinkman PT 10/35 polytron. TME buffer was added to achieve a final 40 ml volume in the centrifuge tubes (the composition of TME is 100 mM TRIS base, 20 mM MgCl2, […]; 10N HCl is added to achieve a pH of 7.4).
(§6) The cell homogenate was centrifuged at 19000 r.p.m. for 20 min at 4° C. using a Beckman Ti-60 rotor. The resultant pellet was resuspended in TME buffer to give a final 1 mg/ml protein concentration, as determined by Biorad assay. Radioligand binding competition assays vs. [^3H-]17-phenyl PGF2α (5 nM) were performed in a 100 μl volume for 60 min. Binding reactions were started by adding plasma membrane fraction. The reaction was terminated by the addition of 4 ml ice-cold TRIS-HCl buffer and rapid filtration through glass fiber GF/B filters using a Brandel cell harvester. The filters were washed 3 times with ice-cold buffer and oven dried for one hour. Non-specific binding was determined with 10 uM unlabeled 17-phenyl PGF2α.
(§7) [^3H-] PGE2 (5 nM; specific activity 180 Ci mmol) was used as the radioligand for EP receptors. Binding studies employing EP1, EP2, EP3, EP4 were performed in duplicate in at least three separate experiments. A 200 μl assay volume was used. Incubations were for 60 min at 25° C. and were terminated by the addition of 4 ml of ice-cold 50 mM TRIS-HCl, followed by rapid filtration through Whatman GF/B filters and three additional 4 ml washes in a cell harvester (Brandel). Non-specific binding determined with 10^−5M of unlabeled PGE2.

hEP4/Gqs5 = molecular target: T3, hEP4/Gqs5 (Homo sapiens, UniProt P35408); assay: FLIPR calcium signal, hEP4/Gqs5; type: cell-based; details: HEK-293 (EBNA) cells, read-out: FUNCTIONAL EC50 HEP4
T3 construct: expressed in transfected cells; host or cells: HEK-293 (EBNA)
T3 sequence (P35408 whole entry): as above
Description: as §1, §2, §3, §4

hTP = molecular target: T4, hTP (Homo sapiens, UniProt P21731); assay: FLIPR calcium signal, hTP; type: cell-based; details: HEK-293 (EBNA) cells, read-out: FUNCTIONAL EC50 HTP
T4 construct: expressed in transfected cells; host or cells: HEK-293 (EBNA)
T4 sequence (P21731 1-343): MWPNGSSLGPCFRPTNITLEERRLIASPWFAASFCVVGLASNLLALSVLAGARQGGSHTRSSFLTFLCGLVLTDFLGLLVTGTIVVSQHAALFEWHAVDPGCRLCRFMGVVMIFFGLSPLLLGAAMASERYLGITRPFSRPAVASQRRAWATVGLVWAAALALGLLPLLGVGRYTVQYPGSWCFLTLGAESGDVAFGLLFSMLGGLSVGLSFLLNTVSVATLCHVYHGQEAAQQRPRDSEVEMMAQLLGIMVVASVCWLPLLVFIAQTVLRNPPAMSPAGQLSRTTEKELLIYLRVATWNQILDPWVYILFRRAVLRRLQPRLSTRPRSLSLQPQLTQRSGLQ
Description: as §1, §2, §3, §4

HEP3D = molecular target: T5, HEP3D (Homo sapiens, UniProt P43115); assay: Radioligand binding, EP3 receptor; details: [3H]PGE2 5 nM
T5 sequence (P43115 1-374 isoform P43115-4): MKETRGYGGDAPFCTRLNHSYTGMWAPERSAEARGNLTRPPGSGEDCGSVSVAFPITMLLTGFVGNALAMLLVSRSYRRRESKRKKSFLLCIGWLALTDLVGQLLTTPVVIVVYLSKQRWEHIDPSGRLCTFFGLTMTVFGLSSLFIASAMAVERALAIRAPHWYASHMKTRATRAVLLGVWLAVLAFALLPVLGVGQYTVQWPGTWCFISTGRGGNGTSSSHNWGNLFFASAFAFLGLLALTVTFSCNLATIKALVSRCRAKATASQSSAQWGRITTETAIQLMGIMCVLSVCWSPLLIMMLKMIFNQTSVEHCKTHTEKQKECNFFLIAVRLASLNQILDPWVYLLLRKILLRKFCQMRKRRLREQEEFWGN
Description: as §5, §6, §7

Structure (SMILES) | EC50 (hEP3A/Gqi5) [nM] | IC50 (HEP4) [nM] | EC50 (hEP4/Gqs5) [nM] | EC50 (hTP) [nM] | IC50 (HEP3D) [nM]
CC(O)(/C=C/[C@H]1CCC(=O)[C@@H]1SCCCSCC(=O)O)CCc1ccc2ccccc2c1 (single isomer, unassigned) [drawing 24] | > 10000 | 96 | 1.8 | > 10000 | 
COC(=O)CSCCCS[C@H]1C(=O)C[C@@H](CO)[C@@H]1/C=C/C(O)CCc1cc2ccccc2s1 (stereo partly drawn) [drawing 30, {3-[(1R,2S,3R)-2-((E)-5-Benzo[b]thiophen-2-yl-3-hydroxy-pent-1-enyl)-3-hydroxymethyl-5-oxo-cyclopentylsulfanyl]-propylsulfanyl}-acetic acid methyl ester] |  | 1900 | > 10000 |  | 
O=C(O)CSCCCS[C@H]1C(=O)C[C@@H](CO)[C@@H]1/C=C/C(O)CCc1cc2ccccc2s1 (single isomer, unassigned) [drawing 31] |  | 1300 | 363 |  | 
CC(O)(/C=C/[C@H]1CCC(=O)[C@@H]1SCCCSCC(=O)O)CCc1ccc2ccccc2c1 (single isomer, unassigned) [drawing 33] |  | 200 | 20 | > 10000 | 
COC(=O)CSCCCS[C@H]1C(=O)CC[C@@H]1/C=C/C(O)CCc1cc2ccccc2s1 (stereo partly drawn) [drawing 27, {3-[(1R,2R)-2-((E)-5-Benzo[b]thiophen-2-yl-3-hydroxy-pent-1-enyl)-5-oxo-cyclopentylsulfanyl]-propylsulfanyl}-acetic acid methyl ester] |  | 300 | 7.8 |  | 
COC(=O)CSCCCS[C@H]1C(=O)CC[C@@H]1/C=C/C(C)(O)CCc1ccc2ccccc2c1 (stereo partly drawn) [{3-[(1R,2R)-2-((E)-3-Hydroxy-3-methyl-5-naphthalen-2-yl-pent-1-enyl)-5-oxo-cyclopentylsulfanyl]-propylsulfanyl}-acetic acid methyl ester] |  | 500 | 46 |  | 
O=C(O)CSCCCS[C@H]1C(=O)C[C@@H](CO)[C@@H]1/C=C/C(O)CCc1cc2ccccc2s1 (single isomer, unassigned) [drawing 32] |  | 100 | 463 |  | 
O=C(O)CSCCCS[C@H]1C(=O)CC[C@@H]1/C=C/C(O)Cc1ccccc1 (single isomer, unassigned) [drawing 47] | > 10000 | 55 | 60 |  | > 10000
COC(=O)CSCCCS[C@H]1C(=O)CC[C@@H]1/C=C/C(O)CCc1ccc2ccccc2c1 (stereo partly drawn) [drawing 35, {3-[(1R,2R)-2-((E)-3-Hydroxy-5-naphthalen-2-yl-pent-1-enyl)-5-oxo-cyclopentylsulfanyl]-propylsulfanyl}-acetic acid methyl ester] |  | 200 | 0.6 |  | 
COC(=O)CSCCCS[C@H]1C(=O)CC[C@@H]1/C=C/C(O)Cc1ccc2ccccc2c1 (stereo partly drawn) [{3-[(1R,2R)-2-((E)-3-Hydroxy-4-naphthalen-2-yl-but-1-enyl)-5-oxo-cyclopentylsulfanyl]-propylsulfanyl}-acetic acid methyl ester] |  | 83 |  |  | > 10000
COC(=O)CSCCCS[C@H]1C(=O)CC[C@@H]1/C=C/C(O)CCc1ccc2ccccc2c1 (stereo partly drawn) [drawing 34, {3-[(1R,2R)-2-((E)-3-Hydroxy-5-naphthalen-2-yl-pent-1-enyl)-5-oxo-cyclopentylsulfanyl]-propylsulfanyl}-acetic acid methyl ester] |  | 300 | 0.5 |  | 
COC(=O)CSCCCS[C@H]1C(=O)C[C@@H](CO)[C@@H]1/C=C/C(O)Cc1ccccc1 (single isomer, unassigned) [drawing 43] |  | 1050 | 2090 |  | 
COC(=O)CSCCCS[C@H]1C(=O)C[C@@H](CO)[C@@H]1/C=C/C(O)CCc1ccc2ccccc2c1 (single isomer, unassigned) [drawing 38] |  | 1600 | 2340 |  | 
O=C(O)CSCCCS[C@H]1C(=O)C[C@@H](CO)[C@@H]1/C=C/C(O)CCc1ccc2ccccc2c1 (stereo partly drawn) [drawing 40, {3-[(1R,2S,3R)-3-Hydroxymethyl-2-((E)-3-hydroxy-5-naphthalen-2-yl-pent-1-enyl)-5-oxo-cyclopentylsulfanyl]-propylsulfanyl}-acetic acid] |  | 1000 | 465 |  | 
COC(=O)CSCCCS[C@H]1C(=O)CC[C@@H]1/C=C/C(O)Cc1ccccc1 (single isomer, unassigned) [drawing 45] |  | 141 | 15 |  | 
O=C(O)CSCCCS[C@H]1C(=O)C[C@@H](CO)[C@@H]1/C=C/C(O)Cc1ccccc1 (single isomer, unassigned) [drawing 50] |  | 440 | 135 |  | 
COC(=O)CSCCCS[C@H]1C(=O)C[C@@H](CO)[C@@H]1/C=C/C(O)CCc1cc2ccccc2s1 (stereo partly drawn) [drawing 29, {3-[(1R,2S,3R)-2-((E)-5-Benzo[b]thiophen-2-yl-3-hydroxy-pent-1-enyl)-3-hydroxymethyl-5-oxo-cyclopentylsulfanyl]-propylsulfanyl}-acetic acid methyl ester] |  | 2100 | 7940 |  | 
COC(=O)CSCCCS[C@H]1C(=O)C[C@@H](CO)[C@@H]1/C=C/C(O)Cc1ccccc1 (single isomer, unassigned) [drawing 42] |  | 195 | 106 |  | 
